The text below walks through data of publication PMC12693633, “Synthesis and Evaluation of Radiogallium-Labeled Peptide Probes for In Vivo Imaging of Legumain Activity” (Molecules, 2025).

Like-named read-outs stand apart in the source and are kept apart here. Square brackets hold non-standard residues; d marks the D form. Peptide text beside a SMILES is read from it. * marks the point of attachment. NOTA(2S-Bn(4-NHCS)) = O=C(O)CN1CCN(CC(=O)O)C[C@H](Cc2ccc(NC(=S)*)cc2)N(CC(=O)O)CC1; Cit = NC(=O)NCCC[C@H](N)C(=O)O; Ahx = NCCCCCC(=O)O

The data set can be described thus: In vivo biodistribution in HCT116 tumor-bearing mice. As to conditions: female, mouse, iv, total radioactivity, mean (SD), n = 5; for tissue to tissue ratio at 1 h: BALB/c nu/nu, 7.4 kBq, HCT116 tumor-bearing mice, 1 h after i.v. injection; for tissue uptake at 1 h / tissue uptake dose at 1 h: 7.4 kBq i.v. (tail vein), 1 h after injection, gamma counter; for tissue uptake dose at 1 h: stomach (whole organ), whole organ. The protocol: Animal experiments were conducted in accordance with our institutional guidelines and were approved by the Nagasaki University Animal Care Committee and the Kanazawa University Animal Care Committee. The animal experimental protocols were approved by the Committee on Animal Experimentation of Nagasaki University and Kanazawa University. BALB/c nu/nu mice (female; 4 weeks old) were supplied by Japan SLC (Shizuoka, Japan). The mice were maintained in a room at a constant ambient temperature and a 12/12 h light/dark cycle and were given free access to food and water. Mice were subcutaneously injected on their right shoulders with approximately 1.0 × 10^7 HCT116 cells. The tumors were allowed to reach 300–500 mm^3 (1–2 weeks after inoculation) before biodistribution studies were performed.
Each [^67Ga]Ga-NOTA-peptide (7.4 kBq) was administered to mice via tail vein injection in 100 μL of saline. The mice were euthanized 1 h after injection, and their organs were harvested. The tissues were weighed and the radioactivity in each sample was measured using an automated gamma counter (n = 5). The results are expressed as the percent injected dose per gram of tissue (%ID/g) or as %ID.

[1] abbreviates: tumor/blood, read-out: Tumor/Blood ratio.
[2] abbreviates: tumor/muscle, read-out: Tumor/Muscle ratio.
The mark [3] stands for this setting: blood, HCT116 tumor-bearing BALB/c nu/nu mice, read-out: Biodistribution, Blood.
Setting [4] is: brain, HCT116 tumor-bearing BALB/c nu/nu mice, read-out: Biodistribution, Brain.
Where [5] appears, read: heart, HCT116 tumor-bearing BALB/c nu/nu mice, read-out: Biodistribution, Heart.
The mark [6] stands for this setting: intestine, HCT116 tumor-bearing BALB/c nu/nu mice, read-out: Biodistribution, Intestine.
[7] abbreviates: HCT116 tumor, BALB/c nu/nu mice, read-out: Biodistribution, Tumor.
Setting [8] is: kidney, HCT116 tumor-bearing BALB/c nu/nu mice, read-out: Biodistribution, Kidney.
[9] abbreviates: liver, HCT116 tumor-bearing BALB/c nu/nu mice, read-out: Biodistribution, Liver.
Setting [10] is: lung, HCT116 tumor-bearing BALB/c nu/nu mice, read-out: Biodistribution, Lung.
[11] abbreviates: muscle, HCT116 tumor-bearing BALB/c nu/nu mice, read-out: Biodistribution, Muscle.
The mark [12] stands for this setting: pancreas, HCT116 tumor-bearing BALB/c nu/nu mice, read-out: Biodistribution, Pancreas.
[13] abbreviates: spleen, HCT116 tumor-bearing BALB/c nu/nu mice, read-out: Biodistribution, Spleen.
Where [14] appears, read: HCT116 tumor-bearing BALB/c nu/nu mice.

For `CC(=O)NCCCCCC(=O)N[C@H](CCC(=O)O)C(=O)N[C@H](CCC(=O)O)C(=O)N[C@H](CCC(=O)O)C(=O)N[C@H](CCC(=O)O)C(=O)N[C@H](CCC(=O)O)C(=O)N[C@H](CCC(=O)O)C(=O)N[C@H](CCC(=O)O)C(=O)N[C@H](CCC(=O)O)C(=O)N[C@H](CCC(=O)O)C(=O)NCCCCCC(=O)N1CCC[C@H]1C(=O)N[C@@H](C)C(=O)N[C@@H](C)C(=O)N[C@@H](CC(N)=O)C(=O)N[C@H](C(=O)NCC(=O)N[C@H](CCCNC(=N)N)C(=O)N[C@H](CCCNC(=N)N)C(=O)N[C@H](CCCNC(=N)N)C(=O)N[C@H](CCCNC(=N)N)C(=O)N[C@H](CCCNC(=N)N)C(=O)N[C@H](CCCNC(=N)N)C(=O)N[C@H](CCCNC(=N)N)C(=O)N[C@H](CCCNC(=N)N)C(=O)N[C@H](CCCNC(=N)N)C(=O)NCCCCCC(=O)N[C@H](CCCCNC(=S)Nc1ccc(C[C@H]2CN(CC(=O)O)CCN(CC(=O)O)CCN2CC(=O)O)cc1)C(N)=O)C(C)C` [[^67Ga]Ga-NOTA-LCP-1, metal not drawn] (Ac-[Ahx][dE][dE][dE][dE][dE][dE][dE][dE][dE][Ahx]PAANVG[dR][dR][dR][dR][dR][dR][dR][dR][dR][Ahx][dK](NOTA(2S-Bn(4-NHCS)))-NH2), the tissue to tissue ratio at 1 h was 8.29 ± 3.41 under setting [1] and 3.54 under setting [2]. Also, the tissue uptake at 1 h by setting is: under setting [3], 0.28 %ID/g; under setting [4], 0.03 %ID/g; under setting [5], 0.53 %ID/g; under setting [6], 0.44 %ID/g; under setting [7], 1.83 ± 0.32 %ID/g; under setting [8], 129 %ID/g. Also, the tissue uptake at 1 h by setting is: under setting [9], 19.1 %ID/g; under setting [10], 0.93 %ID/g; under setting [11], 0.54 %ID/g; under setting [12], 0.31 %ID/g; under setting [13], 3.94 %ID/g. Also, under setting [14], the tissue uptake dose at 1 h came to 0.18 %ID.
As for `CC(=O)NCCCCCC(=O)N[C@H](CCC(=O)O)C(=O)N[C@H](CCC(=O)O)C(=O)N[C@H](CCC(=O)O)C(=O)N[C@H](CCC(=O)O)C(=O)NCCCCCC(=O)N1CCC[C@H]1C(=O)N[C@@H](C)C(=O)N[C@@H](C)C(=O)N[C@@H](CC(N)=O)C(=O)N[C@H](C(=O)NCC(=O)N[C@H](CCCNC(=N)N)C(=O)N[C@H](CCCNC(=N)N)C(=O)N[C@H](CCCNC(=N)N)C(=O)N[C@H](CCCNC(=N)N)C(=O)N[C@H](CCCNC(=N)N)C(=O)NCCCCCC(=O)N[C@H](CCCCNC(=S)Nc1ccc(C[C@H]2CN(CC(=O)O)CCN(CC(=O)O)CCN2CC(=O)O)cc1)C(N)=O)C(C)C` [[^67Ga]Ga-NOTA-LCP-3, metal not drawn] (Ac-[Ahx][dE][dE][dE][dE][Ahx]PAANVG[dR][dR][dR][dR][dR][Ahx][dK](NOTA(2S-Bn(4-NHCS)))-NH2), the tissue to tissue ratio at 1 h reads like this: under setting [1], 2.2 ± 0.69; under setting [2], 2.47. Also, the tissue uptake at 1 h by setting is: under setting [3], 0.46 %ID/g; under setting [4], 0.04 %ID/g; under setting [5], 0.44 %ID/g; under setting [6], 0.63 %ID/g; under setting [7], 0.97 ± 0.25 %ID/g; under setting [8], 96.6 %ID/g. For the same compound, the tissue uptake at 1 h worked out at 17.2 %ID/g under setting [9]; 1.58 %ID/g under setting [10]; 0.4 %ID/g under setting [11]; 0.38 %ID/g under setting [12]; 4.37 %ID/g under setting [13]. The tissue uptake dose at 1 h under setting [14] was determined as 0.19 %ID.
For the compound `CC(=O)NCCCCCC(=O)N[C@H](CCC(=O)O)C(=O)N[C@H](CCC(=O)O)C(=O)N[C@H](CCC(=O)O)C(=O)N[C@H](CCC(=O)O)C(=O)N[C@H](CCC(=O)O)C(=O)N[C@H](CCC(=O)O)C(=O)N[C@H](CCC(=O)O)C(=O)N[C@H](CCC(=O)O)C(=O)N[C@H](CCC(=O)O)C(=O)NCCCCCC(=O)N1CCC[C@H]1C(=O)N[C@@H](C)C(=O)N[C@@H](C)C(=O)N[C@@H](CCCNC(N)=O)C(=O)N[C@H](C(=O)NCC(=O)N[C@H](CCCNC(=N)N)C(=O)N[C@H](CCCNC(=N)N)C(=O)N[C@H](CCCNC(=N)N)C(=O)N[C@H](CCCNC(=N)N)C(=O)N[C@H](CCCNC(=N)N)C(=O)N[C@H](CCCNC(=N)N)C(=O)N[C@H](CCCNC(=N)N)C(=O)N[C@H](CCCNC(=N)N)C(=O)N[C@H](CCCNC(=N)N)C(=O)NCCCCCC(=O)N[C@H](CCCCNC(=S)Nc1ccc(C[C@H]2CN(CC(=O)O)CCN(CC(=O)O)CCN2CC(=O)O)cc1)C(N)=O)C(C)C` [[^67Ga]Ga-NOTA-NCP-1, metal not drawn] (Ac-[Ahx][dE][dE][dE][dE][dE][dE][dE][dE][dE][Ahx]PAA[Cit]VG[dR][dR][dR][dR][dR][dR][dR][dR][dR][Ahx][dK](NOTA(2S-Bn(4-NHCS)))-NH2), the tissue to tissue ratio at 1 h was determined as 4.39 ± 2.07 under setting [1] and 1.91 under setting [2]. In addition, the tissue uptake at 1 h runs as follows: under setting [3], 0.45 %ID/g; under setting [4], 0.04 %ID/g; under setting [5], 0.43 %ID/g; under setting [6], 0.53 %ID/g; under setting [7], 1.8 ± 0.51 %ID/g; under setting [8], 122 %ID/g. Moreover, the tissue uptake at 1 h is 17.4 %ID/g under setting [9]; 1.08 %ID/g under setting [10]; 0.96 %ID/g under setting [11]; 0.64 %ID/g under setting [12]; 3.15 %ID/g under setting [13]. Under setting [14], the tissue uptake dose at 1 h worked out at 0.22 %ID.
As for `CC(=O)NCCCCCC(=O)N[C@H](CCC(=O)O)C(=O)N[C@H](CCC(=O)O)C(=O)N[C@H](CCC(=O)O)C(=O)N[C@H](CCC(=O)O)C(=O)NCCCCCC(=O)N1CCC[C@H]1C(=O)N[C@@H](C)C(=O)N[C@@H](C)C(=O)N[C@@H](CCCNC(N)=O)C(=O)N[C@H](C(=O)NCC(=O)N[C@H](CCCNC(=N)N)C(=O)N[C@H](CCCNC(=N)N)C(=O)N[C@H](CCCNC(=N)N)C(=O)N[C@H](CCCNC(=N)N)C(=O)N[C@H](CCCNC(=N)N)C(=O)NCCCCCC(=O)N[C@H](CCCCNC(=S)Nc1ccc(C[C@H]2CN(CC(=O)O)CCN(CC(=O)O)CCN2CC(=O)O)cc1)C(N)=O)C(C)C` [[^67Ga]Ga-NOTA-NCP-3, metal not drawn] (Ac-[Ahx][dE][dE][dE][dE][Ahx]PAA[Cit]VG[dR][dR][dR][dR][dR][Ahx][dK](NOTA(2S-Bn(4-NHCS)))-NH2), the tissue to tissue ratio at 1 h under setting [1] is 2.54 and the tissue to tissue ratio at 1 h under setting [2] amounted to 2.7. Besides, the tissue uptake at 1 h was found to be 0.41 %ID/g under setting [3]; 0.04 %ID/g under setting [4]; 0.56 %ID/g under setting [5]; 0.54 %ID/g under setting [6]; 0.95 %ID/g under setting [7]; 73.3 %ID/g under setting [8]. Besides, the tissue uptake at 1 h was determined as 20.8 %ID/g under setting [9]; 1.36 %ID/g under setting [10]; 0.43 %ID/g under setting [11]; 0.46 %ID/g under setting [12]; 5.38 %ID/g under setting [13]. Further, under setting [14], the tissue uptake dose at 1 h was determined as 0.12 %ID.
